Molecules are shown by their SMILES. Where “and” joins values, the source holds several entries; their conditions need not be identical. Equal entries are not always repeated.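 The compound was tested at five concentrations on cells cultured in 96-well plates, with a 48-hour exposure period. GI50 marks 50% less growth. TGI denotes the concentration required for complete inhibition of growth.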

Test systems include DMS 273 small cell lung; XF 498 CNS; HOP-18 NSCLC; M19-MEL melanoma; DMS 114 small cell lung; DLD-1 colon; T-47D breast; MDA-N.
Holding throughout (experiment): inhibition of tumour cell growth, NCI panel, 48 h

Take `COc1cc(OC)c2ssc3c(OC)cc(OC)c4ssc1c2-c43`: the TGI in the assay with DMS 273 small cell lung, in the assay on XF 498 CNS, in the assay with HOP-18 NSCLC, in the assay with M19-MEL melanoma, with DMS 114 small cell lung and in the assay on DLD-1 colon was > 100 µM throughout.

As to `COc1c2ccoc2cc2oc(=O)ccc12`, the TGI with T-47D breast and with MDA-N was > 100 µM in each case.

For the molecule `CCOC(=O)C[C@@H](C)[C@]1(C(=O)OC)CCCC1=O`, the TGI in the assay on DMS 273 small cell lung was > 100 µM; in the assay on XF 498 CNS it was > 100 µM; in the assay on HOP-18 NSCLC it was > 100 µM; in the assay with M19-MEL melanoma, > 100 µM; in the assay on DMS 114 small cell lung it was > 58.9 µM; in the assay on DLD-1 colon, > 71.3 µM.

Turning to `C#CCSc1n[nH]c(-c2ccco2)n1`, the TGI with T-47D breast and in the assay on MDA-N was > 100 µM each time.

Take `COc1cc(Br)c(CC2(C#N)c3ccccc3C3C(N2C(=O)c2ccccc2)C3(Cl)Cl)cc1OC` (configuration not stated): the TGI in the assay on DMS 273 small cell lung, in the assay on XF 498 CNS, in the assay with HOP-18 NSCLC, with DMS 114 small cell lung and in the assay with DLD-1 colon was > 65.5 µM throughout.

On to `O=C(N/N=C/c1ccccc1O)C(O)(c1ccccc1)c1ccccc1`, for which, in the assay on T-47D breast, the GI50 is 8.02 µM and the TGI was > 100 µM.

With `C=CC(=O)N1C/C(=C\c2ccccc2)C(=O)/C(=C/c2ccccc2)C1`, the TGI in the assay with T-47D breast was found to be 18.4 µM; with DMS 273 small cell lung, 2.13 µM; in the assay on XF 498 CNS, 3.54 µM; in the assay with HOP-18 NSCLC it was 9.97 µM; with M19-MEL melanoma, 2.48 µM; in the assay on DMS 114 small cell lung, 2.73 µM. Besides, the TGI in the assay with DLD-1 colon came to 1.15 µM; in the assay with MDA-N, 1.07 µM. For the same molecule, in the assay with MDA-N, the GI50 was 0.427 µM.

Turning to `NC(=O)/C(=C\c1ccncc1)c1cccc2ccccc12`, the TGI with T-47D breast and with MDA-N was > 100 µM each time.

For `COC(=O)[C@H]1C(=O)[C@@]2(C)[C@H]([C@H](OC(=O)c3ccccc3)[C@]3(O)C[C@H](OC(=O)[C@H](O)[C@@H](NC(=O)c4ccc(F)cc4)c4ccccc4)C(C)=C1C3(C)C)[C@]1(OC(C)=O)CO[C@@H]1C[C@@H]2O`, in the assay with T-47D breast, the GI50 is 0.0106 µM and the TGI is > 25 µM.

For the molecule `CN1CCC(CNc2ccc3ncc(-c4cccc(OC(F)(F)F)c4)n3n2)CC1`, in the assay on T-47D breast, the GI50 is 1.44 µM and 1.28 µM; the TGI was 3.01 µM and 3.56 µM.

The molecule `COc1cc2c3c(c4ccc(OC)c(OC)c4c2cc1OC)CN1CCC[C@@H]1C3` came in with a TGI in the assay on MDA-N of 12.2 µM.

Take `C[N+](C)(C)CC(=O)N/N=C(\CCC(=O)NCCc1ccccc1)CC(=O)c1ccccc1`: the TGI in the assay with DMS 273 small cell lung, with XF 498 CNS, with HOP-18 NSCLC, in the assay with M19-MEL melanoma, in the assay with DMS 114 small cell lung and in the assay with DLD-1 colon was > 100 µM each time.

In the case of `CCCCCCCCCCCCNC(=O)[C@H]1CSC(c2cc3ccccc3s2)N1` (some centres not stated), in the assay on T-47D breast, the GI50 was 5.5 µM and the TGI stood at 12.3 µM.

Take `COC(=O)[C@H]1[C@@H](O)[C@@]2(O)c3c(OC)cc(O[C@@H]4O[C@@H]([C@H](O)CO)CO[C@H]4OC)cc3O[C@@]2(c2ccc(OC)cc2)[C@@H]1c1ccccc1`: in the assay on T-47D breast, the GI50 is 0.00226 µM and the TGI is 0.0199 µM.

As for `Cc1nc2ccccn2c1NC(=O)NNC(=S)Nc1ccc(Br)cc1`, in the assay on T-47D breast, the GI50 is 48.2 µM and the TGI was > 100 µM.

For the molecule `COCc1c(CO)cnc(C)c1OC1OC(CO)C(O)C(O)C1O` (configuration not stated), the TGI in the assay on DMS 273 small cell lung, in the assay on XF 498 CNS, in the assay with M19-MEL melanoma, in the assay on DMS 114 small cell lung and in the assay on DLD-1 colon was > 100 µM throughout.

As to `O=C(/C=C/c1ccc(O)c(O)c1)OC1C[C@@](O)(C(=O)O)C[C@@H](O)[C@H]1OC(=O)/C=C/c1ccc(O)c(O)c1` (some centres not stated), the TGI with DMS 273 small cell lung, with XF 498 CNS, in the assay with HOP-18 NSCLC, with M19-MEL melanoma, with DMS 114 small cell lung and with DLD-1 colon was > 100 µM throughout.

`O=C(NCCc1ccccc1)C(c1ccccc1)(c1ccccc1)c1ccccc1`: in the assay with T-47D breast, the GI50 was 30.4 µM and the TGI was > 100 µM.

For `COc1ccccc1-c1cc(/C=C2\C(=O)Nc3ncc(Br)cc32)cc(Br)c1O`, in the assay with T-47D breast, the GI50 is 10.6 µM and the TGI is > 25 µM.

As for `COc1cccc(Cn2c(-c3nonc3N)nc3ccccc32)c1`, in the assay with T-47D breast, the GI50 is 0.475 µM and the TGI was > 100 µM.

Consider `C/C1=C/C(=O)O[C@@H]2C[C@@H](CC[C@H](C)/C=C\C=C\CC1)O[C@@](O)([C@@H]1CSC(=O)N1CO)C2`, for which, in the assay with T-47D breast, the GI50 is 0.0593 µM and the TGI came out at 47.6 µM.

On to `NC(=O)C1c2ccccc2C=Cc2ccccc21`, for which, in the assay on T-47D breast, the GI50 was > 100 µM and the TGI was > 100 µM.

Take `CCOc1cc2ccc3c4cc(OC)c(OC)cc4cnc3c2cc1OCC`: the TGI in the assay with XF 498 CNS, with HOP-18 NSCLC, with M19-MEL melanoma, in the assay on DMS 114 small cell lung and in the assay on DLD-1 colon was > 100 µM in each case.

In the case of `CNC(=O)c1c(NC(=O)c2ccc(C(F)(F)F)cc2)sc2c1CCC(=O)C2`, in the assay on T-47D breast, the GI50 is 0.305 µM and the TGI came to 2.38 µM.

`O=C(O)C1=C(C(=O)Nc2ccccc2)C2C=CC1C2` (configuration not stated): the TGI in the assay on DMS 273 small cell lung, with XF 498 CNS, with HOP-18 NSCLC, in the assay with M19-MEL melanoma, in the assay on DMS 114 small cell lung and with DLD-1 colon was > 100 µM throughout.

Take `CC(C)C1C(=O)NC(CO)Cc2c[nH]c3c(C(c4c[nH]c5ccccc45)C(O)CO)ccc(c23)N1C` (configuration not stated): the TGI in the assay on DMS 273 small cell lung, in the assay with XF 498 CNS, in the assay with HOP-18 NSCLC, in the assay on M19-MEL melanoma and with DLD-1 colon was > 100 µM in each case.

Turning to `C=C(C)[C@@H]1CC[C@]2(C(N)=O)CC[C@]3(C)[C@H](CC[C@@H]4[C@@]5(C)CC[C@H](O)C(C)(C)[C@@H]5CC[C@]43C)[C@@H]12`, in the assay on T-47D breast, the GI50 is 4.55 µM and the TGI came to 26.9 µM.
